Experimental data reported in ChEMBL document CHEMBL1128057, “Aryl-fused sphingolipids as novel PKC inhibitors with topical antiinflammatory activity” (Bioorg Med Chem Lett, 1995).

How the values were obtained:
Protein kinase C (PKC) [1] = experiment: Inhibitory concentration required against Protein kinase C (isolated from rat brain) in PKC assay performed with 4 ug phosphatidyl serine:diacylglycerol (2:1)
Protein kinase C (PKC) [2] = experiment: Inhibition of Protein kinase C of rat brain using phosphatidyl serine: di-acyl glycerol (2:1)
Mus musculus = species: Mus musculus; experiment: Anti-inflammatory activity on the mice ears using antiinflammatory assay (TPAEE); assay type: functional

SMILES	IC50 (Protein kinase C (PKC) [1]) [µM]	IC50 (Protein kinase C (PKC) [2]) [µM]	ED50 (Mus musculus) [mg ear-1]
CCCCCCCCCC#Cc1ccc([C@@H](O)[C@@H](N)CO)s1	4.7		
CCCCCCCCCCc1cc([C@@H](O)[C@@H](N)CO)on1	43.9		
N[C@@H](CO)[C@H](O)c1ccc(C#CCCCCc2ccccc2)s1	36		
CCCCCCCCCCC#Cc1csc([C@@H](O)[C@@H](N)CO)n1		15.2	
CCCCCCCCCCC#Cc1csc([C@@H](O)[C@@H](N)CO)c1	10.8	23.7	0.23
CCCCCCCCCc1ccc([C@@H](O)[C@@H](N)CO)s1	10		
N[C@@H](CO)[C@H](O)c1cccc(C#CCCCCCc2ccccc2)n1	15.9		
CCCCCCCCCC#Cc1cccc([C@@H](O)[C@@H](N)CO)c1	9.7		
CCCCCCCCCCc1cccc([C@@H](O)[C@@H](N)CO)n1	30.5		
CCCCCCCCCCCCCCCCc1cccc([C@@H](O)[C@@H](N)CO)n1	4.5		
CCCCCCCC#Cc1ccc([C@@H](O)[C@@H](N)CO)s1	19.9		
CCCCCCCCCCCCc1ccc([C@@H](O)[C@@H](N)CO)s1	14		
CCCCCCCCCCCCc1cccc([C@@H](O)[C@@H](N)CO)n1	10.9		
CCCCCCCCc1cccc([C@@H](O)[C@@H](N)CO)n1	> 100		
CCCCCCCCCCCC#Cc1ccc([C@@H](O)[C@@H](N)CO)s1	3.5		
CCCCCCCCCCC#Cc1cc([C@@H](O)[C@@H](N)CO)cs1		34.5	
CCCCCCCCCCC#Cc1ccc([C@@H](O)[C@@H](N)CO)s1	2.9	26.2	0.24
CCCCCCCCCCCC(=O)c1ccc([C@@H](O)[C@@H](N)CO)s1		22.4	
CCCCCCCCCCCc1cccc([C@@H](O)[C@@H](N)CO)n1	10		
CCCCCCCCCC#Cc1cccc([C@@H](O)[C@@H](N)CO)n1	10		
CCCCCCCCC#Cc1cccc([C@@H](O)[C@@H](N)CO)n1	13.3		
CCCCCCCCCCCCc1cccc([C@@H](O)[C@@H](N)CO)c1	3.7	17.3	
CCCCCCCCCCCC(=O)c1csc([C@@H](O)[C@@H](N)CO)c1		22.4	
CCCCCCCCCCCOc1cccc([C@@H](O)[C@@H](N)CO)c1		24.1	
CCCCCCCCCCCC(=O)c1cccc([C@@H](O)[C@@H](N)CO)c1		20.7	
CCCCCCCCCCC#Cc1cccc([C@@H](O)[C@@H](N)CO)c1	2.7	22.2	0.34
CCCCCCCCCCCCc1csc([C@@H](O)[C@@H](N)CO)c1		13.3	
CCCCCCCCCCCCc1cc([C@@H](O)[C@@H](N)CO)on1	9.1		
CCCCCCCCCC/C=C/c1csc([C@@H](O)[C@@H](N)CO)c1	5		
CCCCCCCCCCCCC/C=C/[C@@H](O)[C@@H](N)CO [SPHINGOSINE]	6.7	23.4	0.31
